According to the NIST ThermoML archive (doi:10.1016/j.jct.2016.08.010):

Experiments:
[1] = molar heat capacity at constant pressure; xn = mol fraction of the nth substance listed; conditions: 100 kPa, Liquid, Small sample (50 mg) DSC
[2] = excess molar enthalpy (molar enthalpy of mixing); xn = mol fraction of the nth substance listed; conditions: 298.15 K, 100 kPa, Liquid, Power-compensation calorimetry

CCCCn1cc[n+](C)c1C.F[B-](F)(F)F [1-butyl-2,3-dimethylimidazolium tetrafluoroborate] + CCn1cc[n+](C)c1.F[B-](F)(F)F
molar heat capacity at constant pressure [J/K/mol], [1]
Conditions	293.15 K	298.15 K	303.15 K	308.15 K
x1 = 0.1129	319.45	321.79	324.44	327.05
x1 = 0.1657	325.94	328.52	331.39	334.26
x1 = 0.2189	331.85	334.58	337.61	340.64
x1 = 0.2743	337.42	340.23	343.39	346.51
x1 = 0.3272	342.26	345.15	348.38	351.58
x1 = 0.3729	346.15	349.09	352.37	355.65
x1 = 0.4382	351.36	354.4	357.74	361.09
x1 = 0.4917	355.44	358.6	362.01	365.39
x1 = 0.5242	357.91	361.14	364.6	368.01
x1 = 0.5687	361.32	364.66	368.19	371.64
x1 = 0.6042	364.11	367.55	371.14	374.62
x1 = 0.6468	367.63	371.19	374.82	378.34
x1 = 0.6931	371.7	375.37	379.1	382.63
x1 = 0.7244	374.62	378.4	382.14	385.71
x1 = 0.785	380.94	384.83	388.57	392.14
x1 = 0.8149	384.44	388.32	392.05	395.57
x1 = 0.8633	390.63	394.43	398.1	401.56
x1 = 0.9107	397.48	401.14	404.65	407.96
x1 = 1	413.03	416.01	418.84	421.7

[2]
Conditions	excess molar enthalpy [kcal/mol]
x1 = 0.0907	-0.0636
x1 = 0.1357	-0.0796
x1 = 0.1849	-0.088
x1 = 0.2377	-0.0856
x1 = 0.2839	-0.0762
x1 = 0.3341	-0.0593
x1 = 0.3729	-0.0437
x1 = 0.4351	-0.0139
x1 = 0.4972	0.0184
x1 = 0.5483	0.0452
x1 = 0.5967	0.0684
x1 = 0.6417	0.0884
x1 = 0.6978	0.105
x1 = 0.7424	0.114
x1 = 0.7909	0.117
x1 = 0.8345	0.109
x1 = 0.8758	0.0958
x1 = 0.9035	0.0829

CCn1cc[n+](C)c1.F[B-](F)(F)F [1-ethyl-3-methylimidazolium tetrafluoroborate] + CCCCn1cc[n+](C)c1.F[B-](F)(F)F
molar heat capacity at constant pressure [J/K/mol], [1]
Conditions	293.15 K	298.15 K	303.15 K	308.15 K
x2 = 0	303.2	304.53	306.29	308.03
x2 = 0.0731	314.45	315.32	316.58	318.02
x2 = 0.1164	321.05	322.12	323.51	324.76
x2 = 0.1692	328.75	329.72	330.85	332.16
x2 = 0.2144	335.06	336	337.17	338.49
x2 = 0.2672	341.92	342.87	344.05	345.42
x2 = 0.3259	348.89	349.85	351.13	352.54
x2 = 0.3827	354.65	355.77	357.13	358.55
x2 = 0.4365	359.23	360.56	362.07	363.61
x2 = 0.4722	361.72	363.22	364.73	366.24
x2 = 0.535	365.27	367.01	368.62	370.2
x2 = 0.5968	367.7	369.31	370.93	372.58
x2 = 0.6379	368.54	370.31	371.89	373.53
x2 = 0.6857	369.02	370.78	372.53	374.23
x2 = 0.7446	369.21	371.07	372.68	374.41
x2 = 0.7732	368.94	370.9	372.67	374.4
x2 = 0.8293	368.08	370.08	371.76	373.59
x2 = 0.876	367.14	369.26	371.02	372.8
x2 = 0.9253	365.44	367.47	369.72	371.83

[2]
Conditions	excess molar enthalpy [kcal/mol]
x2 = 0.0714	0.00215
x2 = 0.1234	0.00387
x2 = 0.1781	0.00574
x2 = 0.2396	0.00786
x2 = 0.2944	0.00946
x2 = 0.3468	0.0108
x2 = 0.3972	0.0117
x2 = 0.4428	0.0123
x2 = 0.4859	0.0126
x2 = 0.5374	0.0126
x2 = 0.5884	0.0122
x2 = 0.6291	0.0117
x2 = 0.6724	0.0109
x2 = 0.7172	0.00975
x2 = 0.7639	0.00839
x2 = 0.8109	0.00684
x2 = 0.8642	0.00485
x2 = 0.9077	0.00327

CCCCn1cc[n+](C)c1C.F[B-](F)(F)F [1-butyl-2,3-dimethylimidazolium tetrafluoroborate] + CCCCn1cc[n+](C)c1.F[B-](F)(F)F
molar heat capacity at constant pressure [J/K/mol], [1]
Conditions	293.15 K	298.15 K	303.15 K	308.15 K
x1 = 0.0944	372.33	374.56	376.3	378.14
x1 = 0.1139	374.5	376.61	378.27	379.93
x1 = 0.1685	380.51	382.42	383.87	385.43
x1 = 0.1964	383.54	385.39	386.73	388.21
x1 = 0.2219	386.3	388.04	389.27	390.78
x1 = 0.2761	391.8	393.45	394.59	396.01
x1 = 0.325	396.42	397.97	399.09	400.41
x1 = 0.3616	399.58	401.14	402.27	403.61
x1 = 0.4192	404.04	405.54	406.68	408.07
x1 = 0.4769	407.66	409.23	410.42	411.83
x1 = 0.5228	410.01	411.58	412.83	414.29
x1 = 0.5749	412.12	413.7	415.09	416.68
x1 = 0.6325	413.66	415.36	416.86	418.94
x1 = 0.6877	414.45	416.32	418.24	420.31
x1 = 0.7386	414.74	416.82	419.32	421.29
x1 = 0.7922	414.58	416.97	419.35	421.84
x1 = 0.8479	414.36	416.75	419.41	422.19
x1 = 0.8832	413.81	416.53	419.16	421.93
x1 = 1	413.03	416.01	418.84	421.7

[2]
Conditions	excess molar enthalpy [kcal/mol]
x1 = 0.0861	0.00327
x1 = 0.1386	0.00523
x1 = 0.1972	0.00734
x1 = 0.2455	0.00889
x1 = 0.2945	0.0104
x1 = 0.3428	0.0114
x1 = 0.3917	0.0121
x1 = 0.4457	0.0125
x1 = 0.5019	0.0125
x1 = 0.5637	0.0117
x1 = 0.6097	0.0109
x1 = 0.6637	0.00963
x1 = 0.7076	0.00858
x1 = 0.7611	0.00691
x1 = 0.8042	0.00564
x1 = 0.8462	0.00437
x1 = 0.8827	0.00325
x1 = 0.9144	0.0023
